Patent publication US9249129B2, “Morpholino substituted urea derivatives as mTOR inhibitors” (CELLZOME LIMITED, priority 2010, dated 2016)

How the values were obtained:
Assay in all cases: kinobeads assay with mass spectrometry detection of kinases (kinase selectivity profile)
Type in all cases: binding
[1] = target: T1, kinases (kinome) (Homo sapiens, UniProt P17252); details: PKCa (AGC), IPI00385449
T1 construct: determined in kinobeads assays with mass spectrometry detection of kinases as described previously; endogenous in cells; host or cells: cell lysate
Source text: (§1) The protein kinase complement of the human genome (the kinome) was described previously (Manning et al., 2002. Science 298(5600):1912-1934). Sequence accession numbers are defined by the International Protein Index (IPI) (Kersey et al., 2004. Proteomics 4(7):1985-1988).

[2] = target: T2, kinases (kinome) (Homo sapiens, UniProt P25440); details: BRD2 (Atypical), IPI00440502
T2 construct: determined in kinobeads assays with mass spectrometry detection of kinases as described previously; endogenous in cells; host or cells: cell lysate
T2 sequence (P25440 whole entry): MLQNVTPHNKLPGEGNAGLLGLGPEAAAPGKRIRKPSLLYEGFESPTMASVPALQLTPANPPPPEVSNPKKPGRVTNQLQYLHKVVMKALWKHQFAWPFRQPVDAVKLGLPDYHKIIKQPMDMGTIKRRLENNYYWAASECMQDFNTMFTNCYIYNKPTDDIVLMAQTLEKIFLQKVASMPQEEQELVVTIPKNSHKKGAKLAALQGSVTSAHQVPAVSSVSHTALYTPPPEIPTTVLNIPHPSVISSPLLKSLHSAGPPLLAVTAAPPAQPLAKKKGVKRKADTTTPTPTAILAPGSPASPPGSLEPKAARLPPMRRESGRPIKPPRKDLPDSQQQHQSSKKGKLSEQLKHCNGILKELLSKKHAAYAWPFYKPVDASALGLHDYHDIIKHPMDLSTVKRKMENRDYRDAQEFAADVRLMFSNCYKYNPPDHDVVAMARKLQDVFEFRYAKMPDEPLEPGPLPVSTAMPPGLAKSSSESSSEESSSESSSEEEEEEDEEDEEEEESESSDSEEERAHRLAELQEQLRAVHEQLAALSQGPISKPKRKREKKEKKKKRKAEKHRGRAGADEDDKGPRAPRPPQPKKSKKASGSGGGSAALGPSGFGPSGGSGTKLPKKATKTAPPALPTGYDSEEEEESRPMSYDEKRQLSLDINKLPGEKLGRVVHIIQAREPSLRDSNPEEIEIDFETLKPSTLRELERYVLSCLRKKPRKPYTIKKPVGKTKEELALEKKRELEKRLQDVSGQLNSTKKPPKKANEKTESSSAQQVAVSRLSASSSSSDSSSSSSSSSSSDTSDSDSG
Source text: as §1

[3] = target: T3, kinases (kinome) (Homo sapiens, UniProt Q14289); details: PYK2 (TK), IPI00029702
T3 construct: determined in kinobeads assays with mass spectrometry detection of kinases as described previously; endogenous in cells; host or cells: cell lysate
T3 sequence (Q14289 whole entry): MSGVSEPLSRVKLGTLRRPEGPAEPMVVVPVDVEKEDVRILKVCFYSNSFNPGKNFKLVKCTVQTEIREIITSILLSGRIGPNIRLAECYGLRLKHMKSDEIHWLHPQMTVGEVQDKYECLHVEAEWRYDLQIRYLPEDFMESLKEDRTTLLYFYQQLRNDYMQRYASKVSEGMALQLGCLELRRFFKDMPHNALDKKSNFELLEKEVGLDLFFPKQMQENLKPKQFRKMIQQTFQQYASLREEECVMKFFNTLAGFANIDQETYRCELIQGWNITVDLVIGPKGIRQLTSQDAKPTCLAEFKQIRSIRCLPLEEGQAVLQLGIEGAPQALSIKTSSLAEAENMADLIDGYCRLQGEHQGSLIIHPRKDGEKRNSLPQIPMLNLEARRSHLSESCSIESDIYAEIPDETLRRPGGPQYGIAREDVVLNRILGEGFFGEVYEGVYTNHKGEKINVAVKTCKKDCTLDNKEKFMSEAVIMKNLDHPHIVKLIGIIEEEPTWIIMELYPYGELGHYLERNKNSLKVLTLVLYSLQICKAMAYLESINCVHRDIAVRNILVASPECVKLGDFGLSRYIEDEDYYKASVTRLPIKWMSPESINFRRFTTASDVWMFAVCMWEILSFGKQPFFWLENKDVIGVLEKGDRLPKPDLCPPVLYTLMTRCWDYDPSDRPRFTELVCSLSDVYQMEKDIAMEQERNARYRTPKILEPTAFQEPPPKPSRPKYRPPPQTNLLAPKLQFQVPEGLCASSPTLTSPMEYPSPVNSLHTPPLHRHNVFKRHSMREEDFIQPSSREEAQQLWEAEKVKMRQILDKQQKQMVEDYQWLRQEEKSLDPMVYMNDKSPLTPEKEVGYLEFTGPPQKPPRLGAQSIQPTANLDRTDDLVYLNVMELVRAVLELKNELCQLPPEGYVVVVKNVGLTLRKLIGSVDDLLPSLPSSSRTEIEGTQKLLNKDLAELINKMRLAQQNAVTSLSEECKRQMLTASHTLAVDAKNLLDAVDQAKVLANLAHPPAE
Source text: as §1

[4] = target: T4, kinases (kinome) (Homo sapiens, UniProt P48729); details: CK1a (CK1), IPI00448798
T4 construct: determined in kinobeads assays with mass spectrometry detection of kinases as described previously; endogenous in cells; host or cells: cell lysate
Source text: as §1

[5] = target: T5, kinases (kinome) (Homo sapiens, UniProt P42338); details: PIK3Cb (Lipid Kinase), IPI00031388
T5 construct: determined in kinobeads assays with mass spectrometry detection of kinases as described previously; endogenous in cells; host or cells: cell lysate
Source text: as §1

[6] = target: T6, kinases (kinome) (Homo sapiens, UniProt Q9Y572); details: RIPK3 (TKL), IPI00847572
T6 construct: determined in kinobeads assays with mass spectrometry detection of kinases as described previously; endogenous in cells; host or cells: cell lysate
Source text: as §1

[7] = target: T7, kinases (kinome) (Homo sapiens, UniProt P48736); details: PIK3Cg (Lipid Kinase), IPI00292690
T7 construct: determined in kinobeads assays with mass spectrometry detection of kinases as described previously; endogenous in cells; host or cells: cell lysate
T7 sequence (P48736 whole entry): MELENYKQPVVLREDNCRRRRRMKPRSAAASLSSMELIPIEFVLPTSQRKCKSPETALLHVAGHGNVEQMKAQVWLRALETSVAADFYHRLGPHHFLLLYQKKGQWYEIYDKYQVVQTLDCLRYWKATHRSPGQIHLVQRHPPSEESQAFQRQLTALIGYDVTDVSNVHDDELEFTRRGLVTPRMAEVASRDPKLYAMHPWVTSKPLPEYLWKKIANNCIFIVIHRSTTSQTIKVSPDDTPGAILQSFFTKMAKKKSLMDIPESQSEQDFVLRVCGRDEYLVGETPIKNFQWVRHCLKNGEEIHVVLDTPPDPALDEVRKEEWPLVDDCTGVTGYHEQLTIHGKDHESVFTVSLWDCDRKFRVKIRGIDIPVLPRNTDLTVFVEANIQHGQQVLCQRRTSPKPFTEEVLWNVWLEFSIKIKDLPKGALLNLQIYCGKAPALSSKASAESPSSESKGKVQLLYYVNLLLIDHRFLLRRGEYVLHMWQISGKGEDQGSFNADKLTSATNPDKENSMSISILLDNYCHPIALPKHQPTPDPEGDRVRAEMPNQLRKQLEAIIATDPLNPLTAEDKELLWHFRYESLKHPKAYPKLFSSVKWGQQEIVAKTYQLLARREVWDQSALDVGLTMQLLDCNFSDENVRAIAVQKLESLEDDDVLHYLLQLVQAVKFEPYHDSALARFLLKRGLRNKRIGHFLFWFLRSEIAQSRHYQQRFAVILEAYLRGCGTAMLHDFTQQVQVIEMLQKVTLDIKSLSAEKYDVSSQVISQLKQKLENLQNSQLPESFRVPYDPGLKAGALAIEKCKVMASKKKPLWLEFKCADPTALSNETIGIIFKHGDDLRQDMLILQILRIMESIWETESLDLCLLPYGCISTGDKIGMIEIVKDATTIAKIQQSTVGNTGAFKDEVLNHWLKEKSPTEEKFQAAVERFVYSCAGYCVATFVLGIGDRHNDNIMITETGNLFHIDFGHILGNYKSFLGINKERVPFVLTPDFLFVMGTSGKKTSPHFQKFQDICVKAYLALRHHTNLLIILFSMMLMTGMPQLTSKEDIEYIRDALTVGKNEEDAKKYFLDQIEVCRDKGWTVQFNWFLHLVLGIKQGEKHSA
Source text: as §1

[8] = target: T8, kinases (kinome) (Homo sapiens, UniProt Q07912); details: ACK (TK), IPI00552750
T8 construct: determined in kinobeads assays with mass spectrometry detection of kinases as described previously; endogenous in cells; host or cells: cell lysate
Source text: as §1

[9] = target: T9, kinases (kinome) (Homo sapiens, UniProt Q86YV5); details: SgK223 (Other), IPI00739386
T9 construct: determined in kinobeads assays with mass spectrometry detection of kinases as described previously; endogenous in cells; host or cells: cell lysate
T9 sequence (Q86YV5 1-1406): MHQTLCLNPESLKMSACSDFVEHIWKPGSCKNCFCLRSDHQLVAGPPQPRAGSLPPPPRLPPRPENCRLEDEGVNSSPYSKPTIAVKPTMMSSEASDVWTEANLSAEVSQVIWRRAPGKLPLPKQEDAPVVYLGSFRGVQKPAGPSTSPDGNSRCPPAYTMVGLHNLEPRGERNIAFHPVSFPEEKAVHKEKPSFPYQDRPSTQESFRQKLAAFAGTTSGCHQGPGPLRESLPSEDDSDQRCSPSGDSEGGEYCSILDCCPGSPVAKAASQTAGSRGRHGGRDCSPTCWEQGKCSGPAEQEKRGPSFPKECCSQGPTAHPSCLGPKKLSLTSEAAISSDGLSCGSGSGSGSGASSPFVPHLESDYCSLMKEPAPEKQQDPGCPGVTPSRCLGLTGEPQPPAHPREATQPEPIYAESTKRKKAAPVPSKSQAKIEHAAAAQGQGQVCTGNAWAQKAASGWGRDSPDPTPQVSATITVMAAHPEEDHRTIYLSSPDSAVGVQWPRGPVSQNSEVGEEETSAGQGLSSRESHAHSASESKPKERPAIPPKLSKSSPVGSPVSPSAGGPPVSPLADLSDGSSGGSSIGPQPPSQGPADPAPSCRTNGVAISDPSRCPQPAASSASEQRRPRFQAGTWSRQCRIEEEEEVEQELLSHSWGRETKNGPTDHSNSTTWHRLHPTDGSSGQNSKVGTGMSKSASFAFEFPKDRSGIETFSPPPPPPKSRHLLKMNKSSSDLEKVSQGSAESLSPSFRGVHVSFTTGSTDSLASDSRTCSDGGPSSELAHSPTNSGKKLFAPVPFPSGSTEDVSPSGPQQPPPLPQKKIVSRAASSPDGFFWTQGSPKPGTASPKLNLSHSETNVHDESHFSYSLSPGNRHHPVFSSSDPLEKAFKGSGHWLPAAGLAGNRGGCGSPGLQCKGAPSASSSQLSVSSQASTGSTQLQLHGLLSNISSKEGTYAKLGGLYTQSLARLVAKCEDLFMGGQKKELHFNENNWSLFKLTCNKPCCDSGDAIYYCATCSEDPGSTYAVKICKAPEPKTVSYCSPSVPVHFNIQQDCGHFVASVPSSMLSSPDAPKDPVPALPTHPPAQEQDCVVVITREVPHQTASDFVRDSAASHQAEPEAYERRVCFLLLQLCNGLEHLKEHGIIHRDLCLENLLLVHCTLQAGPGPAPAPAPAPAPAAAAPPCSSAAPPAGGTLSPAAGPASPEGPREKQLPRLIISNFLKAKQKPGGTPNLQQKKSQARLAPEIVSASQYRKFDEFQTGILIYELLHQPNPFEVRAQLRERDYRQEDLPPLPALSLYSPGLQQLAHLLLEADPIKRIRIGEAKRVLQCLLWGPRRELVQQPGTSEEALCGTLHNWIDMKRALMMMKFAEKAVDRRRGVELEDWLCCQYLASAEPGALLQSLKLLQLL
Source text: as §1

[10] = target: T10, kinases (kinome) (Homo sapiens, UniProt P49674); details: CK1e (CK1), IPI00027729
T10 construct: determined in kinobeads assays with mass spectrometry detection of kinases as described previously; endogenous in cells; host or cells: cell lysate
Source text: as §1

[11] = target: T11, kinases (kinome) (Homo sapiens, UniProt P36896); details: ALK4 (TKL), IPI00005732
T11 construct: determined in kinobeads assays with mass spectrometry detection of kinases as described previously; endogenous in cells; host or cells: cell lysate
T11 sequence (P36896 24-505): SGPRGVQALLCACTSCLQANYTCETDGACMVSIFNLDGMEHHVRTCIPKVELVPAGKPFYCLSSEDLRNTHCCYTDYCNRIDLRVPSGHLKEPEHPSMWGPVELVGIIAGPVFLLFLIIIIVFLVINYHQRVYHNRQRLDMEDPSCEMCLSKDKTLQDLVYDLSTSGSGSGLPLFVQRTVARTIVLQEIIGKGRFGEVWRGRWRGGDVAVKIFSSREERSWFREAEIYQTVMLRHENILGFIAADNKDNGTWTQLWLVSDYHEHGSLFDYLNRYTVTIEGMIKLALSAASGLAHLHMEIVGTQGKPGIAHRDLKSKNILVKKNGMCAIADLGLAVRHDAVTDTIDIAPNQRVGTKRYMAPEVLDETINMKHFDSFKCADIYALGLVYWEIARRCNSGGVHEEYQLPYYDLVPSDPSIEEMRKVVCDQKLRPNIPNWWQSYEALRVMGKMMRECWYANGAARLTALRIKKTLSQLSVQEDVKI
Source text: as §1

[12] = target: T12, kinases (kinome) (Homo sapiens, UniProt Q13233); details: MAP3K1 (STE), IPI00855985
T12 construct: determined in kinobeads assays with mass spectrometry detection of kinases as described previously; endogenous in cells; host or cells: cell lysate
T12 sequence (Q13233 whole entry): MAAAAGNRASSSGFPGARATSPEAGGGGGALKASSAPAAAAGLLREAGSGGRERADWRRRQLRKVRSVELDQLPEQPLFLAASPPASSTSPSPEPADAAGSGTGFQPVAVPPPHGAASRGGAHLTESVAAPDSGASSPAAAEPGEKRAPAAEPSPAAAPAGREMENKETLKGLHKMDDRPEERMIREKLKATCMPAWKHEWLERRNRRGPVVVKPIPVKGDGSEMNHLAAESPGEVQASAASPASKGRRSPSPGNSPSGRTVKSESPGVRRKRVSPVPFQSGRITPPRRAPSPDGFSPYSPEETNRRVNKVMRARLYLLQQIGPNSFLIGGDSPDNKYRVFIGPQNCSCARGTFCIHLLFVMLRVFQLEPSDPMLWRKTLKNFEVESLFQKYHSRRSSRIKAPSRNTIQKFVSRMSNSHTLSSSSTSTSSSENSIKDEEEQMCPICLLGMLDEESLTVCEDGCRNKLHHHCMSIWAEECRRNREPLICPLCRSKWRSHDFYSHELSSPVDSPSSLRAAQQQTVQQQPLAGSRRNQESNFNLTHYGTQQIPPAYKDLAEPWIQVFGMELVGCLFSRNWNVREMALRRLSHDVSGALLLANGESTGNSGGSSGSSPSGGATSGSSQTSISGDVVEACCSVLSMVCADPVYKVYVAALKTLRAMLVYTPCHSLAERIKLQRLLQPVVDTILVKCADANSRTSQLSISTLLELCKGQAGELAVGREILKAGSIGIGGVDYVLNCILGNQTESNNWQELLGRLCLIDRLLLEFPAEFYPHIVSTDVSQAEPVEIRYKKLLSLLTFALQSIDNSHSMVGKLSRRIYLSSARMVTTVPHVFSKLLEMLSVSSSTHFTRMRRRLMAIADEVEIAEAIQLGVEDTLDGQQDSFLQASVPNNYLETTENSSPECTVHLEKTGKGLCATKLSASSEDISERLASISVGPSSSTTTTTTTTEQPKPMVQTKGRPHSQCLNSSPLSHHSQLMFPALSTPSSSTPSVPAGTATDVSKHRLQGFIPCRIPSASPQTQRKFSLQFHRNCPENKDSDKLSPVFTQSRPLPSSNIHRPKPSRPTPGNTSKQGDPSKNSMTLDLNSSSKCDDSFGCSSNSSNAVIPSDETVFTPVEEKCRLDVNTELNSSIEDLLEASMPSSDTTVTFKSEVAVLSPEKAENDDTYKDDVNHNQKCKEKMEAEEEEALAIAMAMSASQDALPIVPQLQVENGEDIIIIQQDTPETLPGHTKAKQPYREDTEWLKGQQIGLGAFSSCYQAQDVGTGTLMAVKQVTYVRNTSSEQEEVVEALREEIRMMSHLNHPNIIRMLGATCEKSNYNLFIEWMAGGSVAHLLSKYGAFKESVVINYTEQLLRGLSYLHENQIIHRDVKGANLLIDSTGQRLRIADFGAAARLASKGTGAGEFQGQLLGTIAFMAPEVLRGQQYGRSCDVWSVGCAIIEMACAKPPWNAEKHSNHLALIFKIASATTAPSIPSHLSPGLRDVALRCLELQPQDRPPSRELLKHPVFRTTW
Source text: as §1

[13] = target: T13, kinases (kinome) (Homo sapiens, UniProt Q2M2I8); details: AAK1 (Other), IPI00916402
T13 construct: determined in kinobeads assays with mass spectrometry detection of kinases as described previously; endogenous in cells; host or cells: cell lysate
Source text: as §1

Measured: IC50

C[C@H]1COCCN1c1nc(-c2ccc(NC(=O)NC3CC3)cc2)cc(-c2cccnc2S(C)(=O)=O)n1 [Example 46, (S)-1-cyclopropyl-3-(4-(2-(3-methylmorpholino)-6-(2-(methylsulfonyl)pyridin-3-yl)pyrimidin-4-yl)phenyl)urea]
> 10 µM: all assays above

C[C@H]1COCCN1c1nc(-c2ccc(NC(=O)NC3CC3)cc2)cc(-c2ccccc2S(C)(=O)=O)n1 [Example 4, (S)-1-cyclopropyl-3-(4-(2-(3-methylmorpholino)-6-(2-(methylsulfonyl)phenyl)pyrimidin-4-yl)phenyl)urea]
not listed: [9]
> 10 µM: all other assays above

C[C@H]1COCCN1c1nc(-c2ccc(NC(=O)N[C@H]3CCC[C@@H]3O)cc2)cc(-c2cc(F)ccc2S(C)(=O)=O)n1 [Example 76, 1-(4-(6-(5-fluoro-2-(methylsulfonyl)phenyl)-2-((S)-3-methylmorpholino)pyrimidin-4-yl)phenyl)-3-((1S,2S)-2-hydroxycyclopentyl)urea]
> 10 µM: all assays above

CCNC(=O)Nc1ccc(-c2cc(-c3ccccc3C#N)nc(N3CCOC[C@@H]3C)n2)cc1 [Example 8, (S)-1-(4-(6-(2-cyanophenyl)-2-(3-methylmorpholino)pyrimidin-4-yl)phenyl)-3-ethylurea]
> 10 µM: all assays above

C[C@H]1COCCN1c1cc(-c2ccccc2S(C)(=O)=O)nc(-c2ccc(NC(=O)NC3CC3)cc2)n1 [Example 6, (S)-1-cyclopropyl-3-(4-(4-(3-methylmorpholino)-6-(2-(methylsulfonyl)phenyl)pyrimidin-2-yl)phenyl)urea]
> 10 µM: all assays above

C[C@H]1COCCN1c1cc(-c2ccccn2)nc(-c2ccc(NC(=O)NCCO)cc2)n1 [Example 43, (S)-1-(2-hydroxyethyl)-3-(4-(4-(3-methylmorpholino)-6-(pyridin-2-yl)pyrimidin-2-yl)phenyl)urea]
not listed: [11]
> 10 µM: all other assays above

C[C@H]1COCCN1c1nc(-c2ccc(NC(=O)NC3CC3)cc2)cc(-c2cc(F)ccc2S(C)(=O)=O)n1 [Example 40, (S)-1-cyclopropyl-3-(4-(6-(5-fluoro-2-(methylsulfonyl)phenyl)-2-(3-methylmorpholino)pyrimidin-4-yl)phenyl)urea]
> 10 µM: all assays above
